# Assays:
# Format in all cases: binding
# [1] = target: SW480 colon carcinoma cells lysate proteins (Homo sapiens, UniProt P62942); conditions: PreyGene FKBP1A; SW480 cells
# [2] = target: SW480 colon carcinoma cells lysate proteins (Homo sapiens, UniProt P12004); conditions: PreyGene PCNA
# [3] = target: T1, SW480 colon carcinoma cells lysate proteins (Homo sapiens, UniProt Q13126); conditions: PreyGene MTAP; SW480 cells
# T1 sequence (Q13126 1-283): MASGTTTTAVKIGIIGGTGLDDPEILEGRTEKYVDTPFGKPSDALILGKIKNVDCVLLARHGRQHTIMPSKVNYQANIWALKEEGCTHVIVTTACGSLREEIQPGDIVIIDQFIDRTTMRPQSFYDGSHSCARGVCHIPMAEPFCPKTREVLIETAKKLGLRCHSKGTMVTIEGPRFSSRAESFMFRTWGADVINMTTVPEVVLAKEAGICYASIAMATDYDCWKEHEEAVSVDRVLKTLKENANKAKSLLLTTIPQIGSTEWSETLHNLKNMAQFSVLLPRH
# [4] = target: T2, SW480 colon carcinoma cells lysate proteins (Homo sapiens, UniProt P22234); conditions: PreyGene PAICS
# T2 sequence (P22234 1-425): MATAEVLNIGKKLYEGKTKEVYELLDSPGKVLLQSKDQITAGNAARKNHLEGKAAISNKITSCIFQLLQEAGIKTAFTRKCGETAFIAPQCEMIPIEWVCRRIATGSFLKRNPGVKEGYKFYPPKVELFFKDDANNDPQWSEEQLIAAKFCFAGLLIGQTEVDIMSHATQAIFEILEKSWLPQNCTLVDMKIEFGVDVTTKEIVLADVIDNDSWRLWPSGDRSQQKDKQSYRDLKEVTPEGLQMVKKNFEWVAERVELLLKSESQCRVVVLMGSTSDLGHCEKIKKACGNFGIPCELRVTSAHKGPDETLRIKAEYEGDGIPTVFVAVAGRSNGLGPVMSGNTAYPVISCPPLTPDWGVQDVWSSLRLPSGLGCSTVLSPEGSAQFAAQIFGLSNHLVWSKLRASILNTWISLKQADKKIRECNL
# [5] = target: T3, SW480 colon carcinoma cells lysate proteins (Homo sapiens, UniProt P32119); conditions: PreyGene PRDX2
# T3 sequence (P32119 1-198): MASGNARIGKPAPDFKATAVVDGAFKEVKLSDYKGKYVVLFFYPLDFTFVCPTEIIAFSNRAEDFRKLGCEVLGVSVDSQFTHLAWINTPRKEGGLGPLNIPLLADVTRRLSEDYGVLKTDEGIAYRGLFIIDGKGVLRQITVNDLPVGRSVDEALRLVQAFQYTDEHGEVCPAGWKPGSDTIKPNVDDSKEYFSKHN
# [6] = target: T4, SW480 colon carcinoma cells lysate proteins (Homo sapiens, UniProt Q15758); conditions: PreyGene SLC1A5
# T4 sequence (Q15758 1-541): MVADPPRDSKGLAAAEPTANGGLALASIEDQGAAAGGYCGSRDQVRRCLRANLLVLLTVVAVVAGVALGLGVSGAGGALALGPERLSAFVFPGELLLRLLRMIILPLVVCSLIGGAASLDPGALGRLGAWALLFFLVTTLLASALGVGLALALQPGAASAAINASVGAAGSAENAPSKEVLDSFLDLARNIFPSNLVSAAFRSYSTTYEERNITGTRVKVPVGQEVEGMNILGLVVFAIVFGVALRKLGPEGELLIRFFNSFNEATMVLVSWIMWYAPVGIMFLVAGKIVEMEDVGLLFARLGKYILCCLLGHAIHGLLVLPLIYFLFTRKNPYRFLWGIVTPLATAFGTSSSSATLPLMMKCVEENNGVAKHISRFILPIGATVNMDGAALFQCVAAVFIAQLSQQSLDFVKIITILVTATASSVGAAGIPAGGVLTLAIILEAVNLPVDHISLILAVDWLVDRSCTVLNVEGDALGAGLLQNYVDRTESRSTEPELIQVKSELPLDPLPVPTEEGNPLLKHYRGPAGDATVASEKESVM
# [7] = target: T5, SW480 colon carcinoma cells lysate proteins (Homo sapiens, UniProt O00232); conditions: PreyGene PSMD12
# T5 sequence (O00232 1-456): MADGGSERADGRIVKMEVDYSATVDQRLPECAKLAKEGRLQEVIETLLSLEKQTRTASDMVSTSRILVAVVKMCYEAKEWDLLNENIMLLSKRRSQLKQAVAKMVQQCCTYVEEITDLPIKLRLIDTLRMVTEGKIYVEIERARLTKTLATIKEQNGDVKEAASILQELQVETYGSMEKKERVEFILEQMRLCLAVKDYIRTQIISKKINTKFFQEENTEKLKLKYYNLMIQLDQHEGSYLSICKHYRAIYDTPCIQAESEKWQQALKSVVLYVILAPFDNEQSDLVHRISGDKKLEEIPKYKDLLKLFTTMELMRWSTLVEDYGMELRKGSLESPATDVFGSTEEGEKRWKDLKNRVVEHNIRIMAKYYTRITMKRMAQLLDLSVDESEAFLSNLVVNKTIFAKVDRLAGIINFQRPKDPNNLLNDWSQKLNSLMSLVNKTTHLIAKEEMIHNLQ
# SW480 colon carcinoma cells lysate proteins (Homo sapiens, UniProt P62942), sequence (P62942 whole entry): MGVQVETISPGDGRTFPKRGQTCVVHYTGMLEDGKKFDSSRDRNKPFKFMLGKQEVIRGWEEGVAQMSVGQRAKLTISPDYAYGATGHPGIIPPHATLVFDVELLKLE
# SW480 colon carcinoma cells lysate proteins (Homo sapiens, UniProt P12004), sequence (P12004 whole entry): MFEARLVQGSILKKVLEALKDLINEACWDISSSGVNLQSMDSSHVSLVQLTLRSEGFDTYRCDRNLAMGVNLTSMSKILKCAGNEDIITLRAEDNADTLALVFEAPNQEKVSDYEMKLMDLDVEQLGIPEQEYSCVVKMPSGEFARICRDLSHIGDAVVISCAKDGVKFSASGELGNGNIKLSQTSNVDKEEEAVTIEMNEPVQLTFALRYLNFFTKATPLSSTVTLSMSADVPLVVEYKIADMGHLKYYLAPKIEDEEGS
structure (smiles),measurement,setting,value
C[C@H](Oc1cc(-c2cnn(C3CCNCC3)c2)cnc1N)c1c(Cl)ccc(F)c1Cl [(5)-crizotinib],AvgP,[1],0
same,SC.Exp. 1-1,[1],1
same,SC.Exp. 1-2,[1],1
same,SC.Exp. 2-1,[1],1
same,SC.Exp. 2-2,[1],0
same,SC.Exp. Sum,[1],3
same,AvgP,[2],0.3137
same,SC.Exp. 1-1,[2],2
same,SC.Exp. 1-2,[2],1
same,SC.Exp. 2-1,[2],0
same,SC.Exp. 2-2,[2],0
same,Sum (SC.Exp.),[2],3
same,AvgP,[3],0
same,SC.Exp. 1-1,[3],1
same,SC.Exp. 1-2,[3],1
same,SC.Exp. 2-1,[3],0
same,SC.Exp. 2-2,[3],0
same,SC.Exp. Sum,[3],2
same,AvgP,[4],0.4488
same,SC.Exp. 1-1,[4],7
same,SC.Exp. 1-2,[4],5
same,SC.Exp. 2-1,[4],0
same,SC.Exp. 2-2,[4],0
same,Sum (SC.Exp.),[4],12
same,AvgP,[5],0.3255
same,SC.Exp. 1-1,[5],4
same,SC.Exp. 1-2,[5],4
same,SC.Exp. 2-1,[5],0
same,SC.Exp. 2-2,[5],0
same,Sum (SC.Exp.),[5],8
same,AvgP,[6],0.227
same,SC.Exp. 1-1,[6],1
same,SC.Exp. 1-2,[6],0
same,SC.Exp. 2-1,[6],3
same,SC.Exp. 2-2,[6],2
same,Sum (SC.Exp.),[6],6
same,AvgP,[7],0.35
same,SC.Exp. 1-1,[7],2
same,SC.Exp. 1-2,[7],2
same,SC.Exp. 2-1,[7],0
same,SC.Exp. 2-2,[7],0
same,Sum (SC.Exp.),[7],4

# — patent publication US9446039B2, “Aminoheteroaryl compounds as MTH1 inhibitors” (CEMM—FORSCHUNGSZENTRUM FÜR MOLEKULARE MEDIZIN GMBH, priority 2012, dated 2016)
